# Data published in a melting point compilation (Tetko et al.; mined from patent text by program, amines drawn as free bases though some values may be those of a salt).
row,SMILES,melting point [°C]
1,O=C(c1ccc(F)cc1)C1CCN(CCN(C(=O)c2ccc([N+](=O)[O-])cc2)c2ccccc2)CC1,178 to 180
2,COc1cccc(CN2CCC(NC(=O)c3cnc4c(OC)cccc4c3Nc3ccc(C(=O)NC4CCN(Cc5ccccc5)CC4)cc3)CC2)c1,135 to 142
3,CN1Cc2c(C#N)ncn2-c2cccc(F)c2C1=O,> 250
4,CCc1c(C(=O)C(N)=O)c2c(NCC(=O)OC)cccc2n1Cc1ccccc1,188 to 193
5,O=C(O)CN(CC(=O)O)c1cc(OCCCCCCCCCCCCOc2ccccc2)cc(OCCCCCCc2cccc(O)c2O)c1,129 to 131
6,c1ccc(P(CC[Si](c2ccccc2)(c2ccccc2)c2ccccc2)c2ccccc2)cc1,128 to 131
7,Cc1cc(C)c(NC(=O)N(Cc2ccc3c(c2)-c2ccccc2-3)C2CCCCCC2)c(C)c1,123 to 124
8,N#Cc1ccccc1-c1cc(-c2cnc3nccnn23)ccc1F,211 to 215
9,CCOC(=O)c1cc(-c2csc(N(C)S(=O)(=O)c3ccccc3)n2)c(=O)[nH]c1C,231 to 234
10,O=C(NCc1ccncc1)N(c1ccccc1)c1ccccc1,174
11,Nc1cc(Br)nc(CO)c1,144 to 145
12,CCCCN(CCCC)c1nc(Nc2ccc3c(c2)C(=O)c2ccccc2C3=O)nc(N(CCCC)CCCC)n1,140 to 145
13,CN(C)Cc1ccc(-c2cc3onc(-c4ccccc4)c3c(=O)n2C)cc1,159 to 161
14,CCCc1c(OCCCCCCCC(=O)O)ccc(C(C)=O)c1O,73 to 76
15,N=C1NC(=O)C(c2ccccc2)S1 (configuration not stated),249 to 252
16,Cc1cc(-c2ccc(F)cc2)n(-c2ccc(S(C)(=O)=O)cc2)c1,151 to 154
17,CCOc1cc(-n2c(=O)cc(C(F)(F)F)n(C)c2=O)c(F)cc1Cl,118 to 121
18,COC(=O)c1cc(-c2ccc(F)c(C)c2)nn(CC(C)C)c1=O,71.4 to 73.8
19,CCCCCCCCCNC(=O)OCCCNC(=O)OC1CCN(C(=O)Oc2ccc(Oc3ccccc3)cc2)CC1,89 to 91
20,Cc1cccc(C)c1N1CC(C)N(c2c(C)cccc2C)C1=NC(=O)Oc1ccccc1 (configuration not stated),165 to 166
21,O=C(c1c(F)cccc1F)N1CNCN(c2ccc(Cl)cc2)C1=O,167 to 168
22,COc1ccccc1OC(CCN)c1ccccc1 (configuration not stated),118 to 121
23,Cc1nc(N2CCN(Cc3ccccc3)C2=O)sc1C(N)=O,217 to 218
24,CCCCOc1cccc(CCNC(=O)C(Br)=Cc2ccccc2)c1,38 to 39
25,CC(=O)NNC1=Nc2ccc(Cl)cc2C(c2c(F)cccc2F)=NC1,274 to 277

# The remaining lines, values ahead:
row,melting point [°C],SMILES
1,184 to 186,Cc1ccc(C(=O)NC(N2CCN(c3cccc(F)c3)C2=S)C(Cl)(Cl)Cl)cc1 (configuration not stated)
2,222 to 223,O=c1nc(-c2cccc(-c3cccs3)n2)sc2ccccc12
3,250,COc1ccc(-c2nc3cc(Cl)c(Cl)cc3[nH]2)cc1[N+](=O)[O-]
4,167 to 169,Cc1ccc2nc(SCc3ccccn3)n(-c3ccccc3)c(=O)c2c1
5,75.5 to 77,CC(C)n1nc(C#Cc2ccccc2)ccc1=O
6,150,CC(C)(C)OC(=O)NCC1CCN(CC2(C(=O)O)CCCC2)CC1
7,276,COc1ccc(-c2ccccc2)cc1NC(=O)c1ncc[nH]1
8,207 to 208,CN(c1cccc2cc(-c3ncc(CCC#N)s3)[nH]c12)S(=O)(=O)c1cccs1
9,104 to 105,CCN1c2ncc(CCc3cccc(N=[N+]=[N-])c3)cc2C(=O)N(C)c2ccc(Cl)nc21
10,109 to 110,CCC(=O)N1CCc2ccccc2C(Oc2ccc(C(F)(F)F)cc2)C1 (configuration not stated)
11,85 to 87,CCOC(=O)c1cnc2c(cnn2CC)c1O
12,245 to 247,Cc1ccc(-c2nc3ccc(N)cn3c2CNC(=O)CC(C)C)cc1
